The values that follow come from patent US10407409B2, “6-(5-hydroxy-1H-pyrazol-1-yl)nicotinamide inhibitors of PHD” (Takeda Pharmaceutical Company Limited, priority 2013, dated 2019).

In assay [1] the target is PHD2 enzyme (residues 181-417) (Homo sapiens (Human), UniProt Q9GZT9). In words: Inhibition of PHD enzyme (LC/MS peptide hydroxylation assay). To be noted: PHD2 (residues 181-417) 5 nM, 60 min pre-incubation; -log(IC50), IC50 molar. The assay is classed as biochemical. In a few lines: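 Hydroxylated peptide quantified by LC/MS after 60 min turnover of 1 uM biotinylated peptide with 2 uM 2-oxoglutarate and 1 mM ascorbate, stopped by excess tight-binding inhibitor. Beforehand, 5 nM enzyme and compound were preincubated 60 min at RT, pH 7.3 HEPES/KCl/TCEP/FeCl2/BSA buffer. Values as pIC50 (−log molar IC50).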

The subject of assay [2] is HIF1a protein in H9c2 rat cardiomyocytes. The assay can be described thus: Cell-based HIF-alpha stabilization assay (inhibition of PHD in cells). The settings on record: Rattus norvegicus, H9c2, 24 h, 24 hrs compound incubation, HIF1a protein by ELISA, read-out: Inhibition of PHD in cells (pEC50) (converted). In a few lines:
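HIF1a stabilization was measured by ELISA on lysates of H9c2 rat cardiomyocytes after 24 h exposure to 11 serial compound concentrations, expressed relative to the desferrioxamine maximum. Curve fits gave EC50. EC50pos denotes the concentration producing half the desferrioxamine maximal response.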
A general note: ELISA stands for enzyme-linked immunosorbent assay.

PHD2 enzyme (residues 181-417), sequence (Q9GZT9 181-417): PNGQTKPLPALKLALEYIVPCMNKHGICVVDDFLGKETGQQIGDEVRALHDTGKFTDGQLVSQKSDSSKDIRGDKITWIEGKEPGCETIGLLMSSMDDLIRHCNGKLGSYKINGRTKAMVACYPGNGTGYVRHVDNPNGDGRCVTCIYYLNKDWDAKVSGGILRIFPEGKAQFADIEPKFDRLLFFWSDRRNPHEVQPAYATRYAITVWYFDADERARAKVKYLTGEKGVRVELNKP

`COc1cc(-c2cnn(-c3ccc(C(=O)NC4CCN(C5CC5)CC4)cn3)c2O)ccn1` [Example 41, N-(1-cyclopropylpiperidin-4-yl)-6-(5-hydroxy-4-(2-methoxypyridin-4-yl)-1H-pyrazol-1-yl)nicotinamide]: the “PHD Inhibition (pIC50)” value in assay [1] was 8. For the same compound, in assay [2], the EC50 was 550 nM.
Turning to `CC[C@H](C)NC(=O)c1ccc(-n2ncc(-c3ccc(C#N)cc3)c2O)nc1` [Example 87, (S)—N-(sec-butyl)-6-(4-(4-cyanophenyl)-5-hydroxy-1H-pyrazol-1-yl)nicotinamide], the “PHD Inhibition (pIC50)” value in assay [1] was determined as 7.66. Moreover, the EC50 in assay [2] was 603 nM.
As to `COCC1(CNC(=O)c2ccc(-n3ncc(-c4ccc(C#N)cc4C)c3O)nc2)CC1` [Example 135, 6-(4-(4-cyano-2-methylphenyl)-5-hydroxy-1H-pyrazol-1-yl)-N-((1-(methoxymethyl)cyclopropyl)methyl)nicotinamide], the “PHD Inhibition (pIC50)” value in assay [1] turned out to be 7.15. Also, the EC50 in assay [2] is 148 nM.
As for `CC(C)CNC(=O)c1ccc(-n2ncc(-c3ccc(C#N)cc3)c2O)nc1` [Example 160, 6-(4-(4-cyanophenyl)-5-hydroxy-1H-pyrazol-1-yl)-N-isobutylnicotinamide], the “PHD Inhibition (pIC50)” value in assay [1] came out at 6.9. For the same compound, in assay [2], the EC50 is 759 nM.
Consider `Cc1cc(C#N)ccc1-c1cnn(-c2ccc(C(=O)N(C)C3CCN(C)CC3)cn2)c1O` [Example 289, 6-(4-(4-cyano-2-methylphenyl)-5-hydroxy-1H-pyrazol-1-yl)-N-methyl-N-(1-methylpiperidin-4-yl)nicotinamide], for which the “PHD Inhibition (pIC50)” value in assay [1] is recorded as 8.03. Also, in assay [2], the EC50 was 1230 nM.
For `Cc1cc(C#N)ccc1-c1cnn(-c2ccc(C(=O)NCCC3CCOCC3)cn2)c1O` [Example 64, 6-(4-(4-cyano-2-methylphenyl)-5-hydroxy-1H-pyrazol-1-yl)-N-(2-(tetrahydro-2H-pyran-4-yl)ethyl)nicotinamide], in assay [1], the “PHD Inhibition (pIC50)” value turned out to be 7.25. In addition, the EC50 in assay [2] was 158 nM.
For `COCCC(C)NC(=O)c1ccc(-n2ncc(-c3ccnc(OC)c3)c2O)nc1` (centres unmarked) [Example 114, 6-(5-hydroxy-4-(2-methoxypyridin-4-yl)-1H-pyrazol-1-yl)-N-(4-methoxybutan-2-yl)nicotinamide] the same measures were 6.55 and 257 nM.
For `N#Cc1ccc(-c2cnn(-c3ccc(C(=O)NCCC4CCOCC4)cn3)c2O)cc1` [Example 174, 6-(4-(4-cyanophenyl)-5-hydroxy-1H-pyrazol-1-yl)-N-(2-(tetrahydro-2H-pyran-4-yl)ethyl)nicotinamide] the same measures were 7.31 and 759 nM.
On to `Cc1cc(C#N)ccc1-c1cnn(-c2ccc(C(=O)NC3CC3)cn2)c1O` [Example 127, 6-(4-(4-cyano-2-methylphenyl)-5-hydroxy-1H-pyrazol-1-yl)-N-cyclopropylnicotinamide], for which, in assay [1], the “PHD Inhibition (pIC50)” value came out at 7.18. Further, the EC50 in assay [2] is 93.3 nM.
Take `COCC1(CNC(=O)c2ccc(-n3ncc(-c4ccc(C#N)cc4)c3O)nc2)CCCC1` [Example 147, 6-(4-(4-cyanophenyl)-5-hydroxy-1H-pyrazol-1-yl)-N-((1-(methoxymethyl)cyclopentyl)methyl)nicotinamide]: in assay [1], the “PHD Inhibition (pIC50)” value was 7.9. In assay [2], the EC50 was 3240 nM.
For `CC[C@H](C)NC(=O)c1ccc(-n2ncc(-c3ccc(C#N)cc3C)c2O)nc1` [Example 122, (S)—N-(sec-butyl)-6-(4-(4-cyano-2-methylphenyl)-5-hydroxy-1H-pyrazol-1-yl)nicotinamide], the “PHD Inhibition (pIC50)” value in assay [1] was 7.06. The EC50 in assay [2] is 95.5 nM.
The corresponding values for `CC1(CNC(=O)c2ccc(-n3ncc(-c4ccc(C#N)cc4)c3O)nc2)COC1` [Example 261, 6-(4-(4-cyanophenyl)-5-hydroxy-1H-pyrazol-1-yl)-N-((3-methyloxetan-3-yl)methyl)nicotinamide] are 7.39 and 1120 nM.
Consider `COC(C)CCNC(=O)c1ccc(-n2ncc(-c3ccc(C#N)cc3)c2O)nc1` (centres unmarked) [Example 145, 6-(4-(4-cyanophenyl)-5-hydroxy-1H-pyrazol-1-yl)-N-(3-methoxybutyl)nicotinamide], for which, in assay [1], the “PHD Inhibition (pIC50)” value came to 8.3. Also, in assay [2], the EC50 is 501 nM.
As to `Cc1cc(-n2ncc(-c3ccc(C#N)cc3)c2O)ncc1C(=O)N1CCN(C)CC1` [Example 430, 4-(5-hydroxy-1-(4-methyl-5-(4-methylpiperazine-1-carbonyl)pyridin-2-yl)-1H-pyrazol-4-yl)benzonitrile], the “PHD Inhibition (pIC50)” value in assay [1] worked out at 7.44. The EC50 in assay [2] is 8510 nM.
The corresponding values for `COCCCNC(=O)c1ccc(-n2ncc(-c3ccc(CC#N)c(F)c3)c2O)nc1` [Example 219, 6-(4-(4-(cyanomethyl)-3-fluorophenyl)-5-hydroxy-1H-pyrazol-1-yl)-N-(3-methoxypropyl)nicotinamide] are 8.2 and 1230 nM.
For `Cc1cc(C#N)ccc1-c1cnn(-c2ccc(C(=O)N3CCN(C)[C@@H](C)C3)cn2)c1O` [Example 372, (S)-4-(1-(5-(3,4-dimethylpiperazine-1-carbonyl)pyridin-2-yl)-5-hydroxy-1H-pyrazol-4-yl)-3-methylbenzonitrile] the same measures were 8.26 and 832 nM.
For the compound `Cc1cc(C#N)ccc1-c1cnn(-c2ccc(C(=O)NC3CCOCC3)cn2)c1O` [Example 59, 6-(4-(4-cyano-2-methylphenyl)-5-hydroxy-1H-pyrazol-1-yl)-N-(tetrahydro-2H-pyran-4-yl)nicotinamide], the “PHD Inhibition (pIC50)” value in assay [1] turned out to be 7.33. For the same compound, the EC50 in assay [2] was 70.8 nM.
Take `COCC[C@H](C)NC(=O)c1ccc(-n2ncc(-c3ccc(C#N)cc3)c2O)nc1` [Example 358, (S)-6-(4-(4-cyanophenyl)-5-hydroxy-1H-pyrazol-1-yl)-N-(4-methoxybutan-2-yl)nicotinamide]: the “PHD Inhibition (pIC50)” value in assay [1] is 8.75. In addition, the EC50 in assay [2] is 1150 nM.
For `Cc1c(-c2cnn(-c3ccc(C(=O)N4CCN(C)C5(CC5)C4)cn3)c2O)ccc(C#N)c1F` [Example 324, 2-fluoro-4-(5-hydroxy-1-(5-(4-methyl-4,7-diazaspiro[2.5]octane-7-carbonyl)pyridin-2-yl)-1H-pyrazol-4-yl)-3-methylbenzonitrile] the same measures were 8.54 and 832 nM.
As to `COc1cc(-c2cnn(-c3ccc(C(=O)N[C@H]4CC[C@@H](C)CC4)cn3)c2O)ccn1` [Example 52, 6-(5-hydroxy-4-(2-methoxypyridin-4-yl)-1H-pyrazol-1-yl)-N-((1s,4s)-4-methylcyclohexyl)nicotinamide], in assay [1], the “PHD Inhibition (pIC50)” value is on record as 8.3. Also, the EC50 in assay [2] was 933 nM.
The corresponding values for `CCN1CCC(N(C)C(=O)c2ccc(-n3ncc(-c4ccc(C#N)cc4C)c3O)nc2)CC1` [Example 425, 6-(4-(4-cyano-2-methylphenyl)-5-hydroxy-1H-pyrazol-1-yl)-N-(1-ethylpiperidin-4-yl)-N-methylnicotinamide] are 7.74 and 776 nM.
The corresponding values for `N#Cc1ccc(-c2cnn(-c3ccc(C(=O)NCC4(F)CCCCC4)cn3)c2O)cc1` [Example 263, 6-(4-(4-cyanophenyl)-5-hydroxy-1H-pyrazol-1-yl)-N-((1-fluorocyclohexyl)methyl)nicotinamide] are 7.22 and 1230 nM.
For the compound `CC1(C)CC1NC(=O)c1ccc(-n2ncc(-c3ccc(C#N)cc3)c2O)nc1` (centres unmarked) [Example 54, 6-(4-(4-cyanophenyl)-5-hydroxy-1H-pyrazol-1-yl)-N-(2,2-dimethylcyclopropyl)nicotinamide], the “PHD Inhibition (pIC50)” value in assay [1] stood at 7.22. Further, in assay [2], the EC50 is 331 nM.
For `COc1nccc(-c2cnn(-c3ccc(C(=O)NCC4CCOCC4)cn3)c2O)c1OC` [Example 255, 6-(4-(2,3-dimethoxypyridin-4-yl)-5-hydroxy-1H-pyrazol-1-yl)-N-((tetrahydro-2H-pyran-4-yl)methyl)nicotinamide] the same measures were 7.6 and 1450 nM.
For the compound `N#Cc1ccc(-c2cnn(-c3ccc(C(=O)NCCCc4nccs4)cn3)c2O)cc1` [Example 116, 6-(4-(4-cyanophenyl)-5-hydroxy-1H-pyrazol-1-yl)-N-(3-(thiazol-2-yl)propyl)nicotinamide], the “PHD Inhibition (pIC50)” value in assay [1] was 7.42. Further, the EC50 in assay [2] is 741 nM.
The corresponding values for `COc1cc(-c2cnn(-c3ccc(C(=O)NCCC4CCCCO4)cn3)c2O)ccn1` (centres unmarked) [Example 207, 6-(5-hydroxy-4-(2-methoxypyridin-4-yl)-1H-pyrazol-1-yl)-N-(2-(tetrahydro-2H-pyran-2-yl)ethyl)nicotinamide] are 8.3 and 123 nM.
For `Cc1c(-c2cnn(-c3ccc(C(=O)N4CCC[C@H](N(C)C)C4)cn3)c2O)ccc(C#N)c1F` [Example 320, (S)-4-(1-(5-(3-(dimethylamino)piperidine-1-carbonyl)pyridin-2-yl)-5-hydroxy-1H-pyrazol-4-yl)-2-fluoro-3-methylbenzonitrile] the same measures were 8.17 and 741 nM.
For `Cc1cc(C#N)ccc1-c1cnn(-c2ccc(C(=O)N3CCC(N(C)C)CC3)cn2)c1O` [Example 416, 4-(1-(5-(4-(dimethylamino)piperidine-1-carbonyl)pyridin-2-yl)-5-hydroxy-1H-pyrazol-4-yl)-3-methylbenzonitrile] the same measures were 7.78 and 1410 nM.
